Results: patent US20190255022A1, “WOUND-HEALING AGENT” (NIPPON CHEMIPHAR CO., LTD., priority 2016, published 2019)

System: rat pressure ulcer model
Assay: Effect of compound A in rat pressure ulcer model
Type: in vivo
Conditions: for Number of days required for healing: 150 mg once a day until healing; for Number of days required for healing / wound area ratio: mean±standard error; for wound area ratio: 150 mg once a day
Protocol: The compound A was weighed in the required amount, and polyethylene glycol 400 (PEG400) was added to the compound to prepare liquids having final concentrations of the compound of 0.01, 0.1, and 1.0 w/v %. In order to prepare ointments having final concentrations of the compound of 0.005, 0.05, and 0.5 w/w %, PEG4000 melted by warming at 65° C. was added to the liquids, and the liquids were stirred until they solidified at room temperature to prepare ointments having concentrations of the compound of 0.005, 0.05, and 0.5 w/w %.
Pentobarbital sodium was intraperitoneally administered (50 mg/kg) to 8 weeks old Slc:SD rats, of which skins on the right third trochanter had been broadly depilated beforehand using an electric clipper and an electric shaver, 20 mg/kg of allobarbital was further intraperitoneally administered to anesthetize the rats, and the animals were fixed on wooden fixation plates in the prone position. Absorbent cotton was inserted between the femoral region and the fixation plate as a cushion, and a stainless steel bar (diameter 19 mm, length 50 cm) having a weight of 1.02 to 1.03 kg and attached with a rubber stopper (diameter 12 mm) was placed on the skin over the right third trochanter to give a pressure load (902.3 to 911.2 g/cm^2) for 24 hours^5). After 24 hours, the pressure load was eliminated, a 5% glucose solution was orally administered to the rats, and two days after the elimination of the pressure load, the necrotic skin was surgically removed under isoflurane anesthesia to prepare a pressure ulcer model. As for the methods of the experiments, Hidetoshi Hamamoto et al., Clinical Pharmacology and Therapy (Yakuri to Rinsho), 15:255-262, 2005, Effect of MRX-201 on Wound Healing Dermal Burns and Decubitus Ulcer in Rat was referred to.
After the preparation of the pressure ulcer model, the administration was performed once a day at a dose of 150 mg until healing was completed. The wound surface was cleaned with absorbent cotton dipped in physiological saline before the administration, and the ointment was applied to the whole wound surface with a spatula.
Wound area was measured once a day after the start of the administration of the test substance until healing was completed. By using the measured wound area, wound area ratio (%) based on the wound area before the start of the administration was calculated. The number of days of the period from the start of the administration to healing was calculated as number of days required for healing.
Homoscedasticity was examined by the Bartlett's method. When homoscedastic results were obtained, one-way layout analysis of variance was further performed, and when significant results were obtained, mean values were compared by the Tukey's method. When heteroscedastic results were obtained, Kruskal-Wallis H-test was performed, and when significant results were obtained, mean ranks were compared by the Tukey's method. For the Bartlett's method, one-way analysis of variance, and Kruskal-Wallis H-test, the statistical significance level was set at 5%, and for the Tukey's method, the statistical significance level was set at 5% and 1%.

Compound: Cc1cc2c(CCc3sc(-c4ccc(C(F)(F)F)cc4)nc3C(C)C)noc2cc1OCC(=O)O [compound A, [3-[2-[4-isopropyl-2-(4-trifluoromethyl)phenyl-5-thiazolyl]ethyl]-5-methyl-1,2-benzisoxazol-6-yl]oxyacetic acid]
- number of the days required for healing compared with the vehicle-administered group (0.005% and 0.05% compound A-administered groups): significantly decreased
- Number of days required for healing (0.005% compound A ointment, n=10): 20.1 ± 1.4 days
- wound area ratio (0.005% compound A ointment, day 1 of administration, n=10): 100.0 ± 0.0%
- wound area ratio (0.005% compound A ointment, day 2 of administration, n=10): 108.3 ± 3.1%
- wound area ratio (0.005% compound A ointment, day 3 of administration, n=10): 108.9 ± 3.9%
- wound area ratio (0.005% compound A ointment, day 4 of administration, n=10): 99.9 ± 3.5 %
- wound area ratio (0.005% compound A ointment, day 5 of administration, n=10): 92.1 ± 3.7 %
- wound area ratio (0.005% compound A ointment, day 6 of administration, n=10): 76.4 ± 5.5 %
- wound area ratio (0.005% compound A ointment, day 7 of administration, n=10): 66.4 ± 4.7 %
- wound area ratio (0.005% compound A ointment, day 8 of administration, n=10): 55.2 ± 4.8 %
- wound area ratio (0.005% compound A ointment, day 9 of administration, n=10): 45.3 ± 4.3 %
- wound area ratio (0.005% compound A ointment, day 10 of administration, n=10): 39.4 ± 4.1 %
- wound area ratio (0.005% compound A ointment, day 11 of administration, n=10): 31.5 ± 3.3 %
- wound area ratio (0.005% compound A ointment, day 12 of administration, n=10): 23.8 ± 2.4 %
- wound area ratio (0.005% compound A ointment, day 13 of administration, n=10): 19.6 ± 2.3 %
- wound area ratio (0.005% compound A ointment, day 14 of administration, n=10): 14.4 ± 2.5 %
- wound area ratio (0.005% compound A ointment, day 15 of administration, n=10): 10.3 ± 2.1%
- wound area ratio (0.005% compound A ointment, day 16 of administration, n=10): 7.1 ± 1.8 %
- wound area ratio (0.005% compound A ointment, day 17 of administration, rats except for the healed rats): 4.4 ± 1.5 %
- wound area ratio (0.005% compound A ointment, day 18 of administration, rats except for the healed rats): 4.9 ± 1.6^ %
- wound area ratio (0.005% compound A ointment, day 19 of administration, rats except for the healed rats): 3.3 ± 1.5 %
- wound area ratio (0.005% compound A ointment, day 20 of administration, rats except for the healed rats): 2.8 ± 1.5^ %
- wound areas compared with the vehicle-administered group (0.005% compound A-administered group, from the day 4 of the administration): significantly smaller
- wound areas compared with the vehicle-administered group (0.05% and 0.5% compound A-administered groups, from the day 5 of the administration): significantly smaller
- Number of days required for healing (0.05% compound A ointment, n=10): 19.7 ± 1.1 days
- wound area ratio (0.05% compound A ointment, day 1 of administration, n=10): 100.0 ± 0.0%
- wound area ratio (0.05% compound A ointment, day 2 of administration, n=10): 115.0 ± 2.8%
- wound area ratio (0.05% compound A ointment, day 3 of administration, n=10): 113.6 ± 3.5%
- wound area ratio (0.05% compound A ointment, day 4 of administration, n=10): 104.9 ± 3.1%
- wound area ratio (0.05% compound A ointment, day 5 of administration, n=10): 95.1 ± 3.7 %
- wound area ratio (0.05% compound A ointment, day 6 of administration, n=10): 84.4 ± 2.8%
- wound area ratio (0.05% compound A ointment, day 7 of administration, n=10): 73.5 ± 2.7 %
- wound area ratio (0.05% compound A ointment, day 8 of administration, n=10): 63.4 ± 3.1 %
- wound area ratio (0.05% compound A ointment, day 9 of administration, n=10): 49.8 ± 4.2 %
- wound area ratio (0.05% compound A ointment, day 10 of administration, n=10): 41.6 ± 3.9 %
- wound area ratio (0.05% compound A ointment, day 11 of administration, n=10): 31.2 ± 3.1 %
- wound area ratio (0.05% compound A ointment, day 12 of administration, n=10): 22.3 ± 3.6 %
- wound area ratio (0.05% compound A ointment, day 13 of administration, n=10): 16.4 ± 4.0 %
- wound area ratio (0.05% compound A ointment, day 14 of administration, n=10): 12.1 ± 3.7 %
- wound area ratio (0.05% compound A ointment, day 15 of administration, n=10): 8.6 ± 3.2 %
- wound area ratio (0.05% compound A ointment, day 16 of administration, n=10): 7.5 ± 3.3 %
- wound area ratio (0.05% compound A ointment, day 17 of administration, rats except for the healed rats): 6.7 ± 3.2 %
- wound area ratio (0.05% compound A ointment, day 18 of administration, rats except for the healed rats): 7.8 ± 3.8^ %
- wound area ratio (0.05% compound A ointment, day 19 of administration, rats except for the healed rats): 5.4 ± 2.9^ %
- wound area ratio (0.05% compound A ointment, day 20 of administration, rats except for the healed rats): 5.4 ± 3.2^ %
- Number of days required for healing (0.5% compound A ointment, n=10): 21.0 ± 1.2 days
- wound area ratio (0.5% compound A ointment, day 1 of administration, n=10): 100.0 ± 0.0%
- wound area ratio (0.5% compound A ointment, day 2 of administration, n=10): 119.6 ± 5.0%
- wound area ratio (0.5% compound A ointment, day 3 of administration, n=10): 117.5 ± 5.0%
- wound area ratio (0.5% compound A ointment, day 4 of administration, n=10): 109.5 ± 4.6%
- wound area ratio (0.5% compound A ointment, day 5 of administration, n=10): 93.2 ± 4.3 %
- wound area ratio (0.5% compound A ointment, day 6 of administration, n=10): 84.9 ± 4.3%
- wound area ratio (0.5% compound A ointment, day 7 of administration, n=10): 77.0 ± 5.1%
- wound area ratio (0.5% compound A ointment, day 8 of administration, n=10): 65.3 ± 4.4%
- wound area ratio (0.5% compound A ointment, day 9 of administration, n=10): 56.0 ± 4.0%
- wound area ratio (0.5% compound A ointment, day 10 of administration, n=10): 49.2 ± 3.9%
- wound area ratio (0.5% compound A ointment, day 11 of administration, n=10): 39.7 ± 4.6%
- wound area ratio (0.5% compound A ointment, day 12 of administration, n=10): 28.3 ± 3.4%
- wound area ratio (0.5% compound A ointment, day 13 of administration, n=10): 19.6 ± 2.2 %
- wound area ratio (0.5% compound A ointment, day 14 of administration, n=10): 15.5 ± 1.6 %
- wound area ratio (0.5% compound A ointment, day 15 of administration, n=10): 8.0 ± 0.9 %
- wound area ratio (0.5% compound A ointment, day 16 of administration, n=10): 5.6 ± 0.7 %
- wound area ratio (0.5% compound A ointment, day 17 of administration, rats except for the healed rats): 3.7 ± 0.5 %
- wound area ratio (0.5% compound A ointment, day 18 of administration, rats except for the healed rats): 2.2 ± 0.6 %
- wound area ratio (0.5% compound A ointment, day 19 of administration, rats except for the healed rats): 2.2 ± 0.6 %
- wound area ratio (0.5% compound A ointment, day 20 of administration, rats except for the healed rats): 1.6 ± 0.4 %
- exacerbation of wounds (from the day 1 to day 3 of the administration, a tendency): suppressed
